System: Hs578T complex spheroid growth, percent test/control
Test: Anticancer human tumor Hs578T cell line growth inhibition [AhR];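 note: luminescent viability signal as a proxy for spheroid growth; spheroids exposed to agents for one week after three days of growth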
Details: for IC50: curve of first compound; for viability, T/C: stronger effect = lower value
Summary of the method: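 Complex tumor spheroids co-cultured with HUVEC and human MSC stroma; AhR antagonists tested in combination with standard-of-care and investigational agents. Top concentration at or near clinical Cmax (else 10 microM), half-log dilutions; growth expressed as percent test/control.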

[1] = second compound 0.1 µM, first compound 0.0316 µM
[2] = second compound 0.1 µM, first compound 0.1 µM
[3] = second compound 0.1 µM, first compound 0.316 µM
[4] = second compound 0.1 µM, first compound 1 µM
[5] = second compound 0.1 µM, first compound 3.16 µM
[6] = second compound 0.1 µM, first compound 10 µM
[7] = second compound 0.316 µM, first compound 0.0316 µM
[8] = second compound 0.316 µM, first compound 0.1 µM
[9] = second compound 0.316 µM, first compound 0.316 µM
[10] = second compound 0.316 µM, first compound 1 µM
[11] = second compound 0.316 µM, first compound 3.16 µM
[12] = second compound 0.316 µM, first compound 10 µM
[13] = second compound 1 µM, first compound 0.0316 µM
[14] = second compound 1 µM, first compound 0.1 µM
[15] = second compound 1 µM, first compound 0.316 µM
[16] = second compound 1 µM, first compound 1 µM
[17] = second compound 1 µM, first compound 3.16 µM
[18] = second compound 1 µM, first compound 10 µM
[19] = second compound 3.16 µM, first compound 0.0316 µM
[20] = second compound 3.16 µM, first compound 0.1 µM
[21] = second compound 3.16 µM, first compound 0.316 µM
[22] = second compound 3.16 µM, first compound 1 µM
[23] = second compound 3.16 µM, first compound 3.16 µM
[24] = second compound 3.16 µM, first compound 10 µM
[25] = second compound 10 µM, first compound 0.0316 µM
[26] = second compound 10 µM, first compound 0.1 µM
[27] = second compound 10 µM, first compound 0.316 µM
[28] = second compound 10 µM, first compound 1 µM
[29] = second compound 10 µM, first compound 3.16 µM
[30] = second compound 10 µM, first compound 10 µM
[31] = second compound 0.1 µM, first compound 0.00316 µM
[32] = second compound 0.1 µM, first compound 0.01 µM
[33] = second compound 0.316 µM, first compound 0.00316 µM
[34] = second compound 0.316 µM, first compound 0.01 µM
[35] = second compound 1 µM, first compound 0.00316 µM
[36] = second compound 1 µM, first compound 0.01 µM
[37] = second compound 3.16 µM, first compound 0.00316 µM
[38] = second compound 3.16 µM, first compound 0.01 µM
[39] = second compound 10 µM, first compound 0.00316 µM
[40] = second compound 10 µM, first compound 0.01 µM

CC(C)c1c(-c2ccccc2)nc2c(C#N)c[nH]n2c1=O + CC(CO)NC(=O)c1cc(-c2ccc(Cl)cc2)nn(-c2cnn(C)c2)c1=O
IC50 (second compound 0.1 µM): > 10000 nM
IC50 (second compound 0.316 µM): > 10000 nM
IC50 (second compound 1 µM): > 10000 nM
IC50 (second compound 3.16 µM): > 10000 nM
IC50 (second compound 10 µM): > 10000 nM
viability, T/C [1]: 109%
viability, T/C [2]: 116%
viability, T/C [3]: 121%
viability, T/C [4]: 113%
viability, T/C [5]: 119%
viability, T/C [6]: 111%
viability, T/C [7]: 113%
viability, T/C [8]: 129%
viability, T/C [9]: 123%
viability, T/C [10]: 111%
viability, T/C [11]: 113%
viability, T/C [12]: 115%
viability, T/C [13]: 109%
viability, T/C [14]: 124%
viability, T/C [15]: 119%
viability, T/C [16]: 113%
viability, T/C [17]: 113%
viability, T/C [18]: 116%
viability, T/C [19]: 115%
viability, T/C [20]: 124%
viability, T/C [21]: 131%
viability, T/C [22]: 113%
viability, T/C [23]: 120%
viability, T/C [24]: 120%
viability, T/C [25]: 110%
viability, T/C [26]: 113%
viability, T/C [27]: 107%
viability, T/C [28]: 110%
viability, T/C [29]: 113%
viability, T/C [30]: 110%

CC1COCCN1c1cc(-c2ccnn2C)c2ccnc(-c3ccn[nH]3)c2n1 (stereo not given) + CC(CO)NC(=O)c1cc(-c2ccc(Cl)cc2)nn(-c2cnn(C)c2)c1=O
IC50 (second compound 0.1 µM): 526 nM
IC50 (second compound 0.316 µM): 778 nM
IC50 (second compound 1 µM): 615 nM
IC50 (second compound 3.16 µM): 384 nM
IC50 (second compound 10 µM): 860 nM
viability, T/C [31]: 118%
viability, T/C [32]: 117%
viability, T/C [1]: 114%
viability, T/C [2]: 91.9%
viability, T/C [3]: 53.6%
viability, T/C [4]: 45.4%
viability, T/C [33]: 133%
viability, T/C [34]: 124%
viability, T/C [7]: 112%
viability, T/C [8]: 96%
viability, T/C [9]: 59.7%
viability, T/C [10]: 47.8%
viability, T/C [35]: 123%
viability, T/C [36]: 126%
viability, T/C [13]: 122%
viability, T/C [14]: 89.8%
viability, T/C [15]: 56.2%
viability, T/C [16]: 45.5%
viability, T/C [37]: 121%
viability, T/C [38]: 122%
viability, T/C [19]: 121%
viability, T/C [20]: 86.9%
viability, T/C [21]: 51.6%
viability, T/C [22]: 46.2%
viability, T/C [39]: 121%
viability, T/C [40]: 124%
viability, T/C [25]: 115%
viability, T/C [26]: 74.5%
viability, T/C [27]: 57.6%
viability, T/C [28]: 45.9%

COc1ccc([C@@H](O)c2cc(-c3ncnc4cc(N5CCOCC5)ccc34)c(F)cc2Cl)nn1 + CC(CO)NC(=O)c1cc(-c2ccc(Cl)cc2)nn(-c2cnn(C)c2)c1=O
IC50 (second compound 0.1 µM): 5550 nM
IC50 (second compound 0.316 µM): 4860 nM
IC50 (second compound 1 µM): 6020 nM
IC50 (second compound 3.16 µM): 4180 nM
IC50 (second compound 10 µM): 4860 nM
viability, T/C [1]: 109%
viability, T/C [2]: 111%
viability, T/C [3]: 105%
viability, T/C [4]: 89.2%
viability, T/C [5]: 64.2%
viability, T/C [6]: 35.7%
viability, T/C [7]: 113%
viability, T/C [8]: 115%
viability, T/C [9]: 104%
viability, T/C [10]: 87.2%
viability, T/C [11]: 57.8%
viability, T/C [12]: 36.7%
viability, T/C [13]: 117%
viability, T/C [14]: 112%
viability, T/C [15]: 102%
viability, T/C [16]: 85.8%
viability, T/C [17]: 65.1%
viability, T/C [18]: 38.3%
viability, T/C [19]: 111%
viability, T/C [20]: 106%
viability, T/C [21]: 102%
viability, T/C [22]: 84%
viability, T/C [23]: 52.9%
viability, T/C [24]: 38.7%
viability, T/C [25]: 95.6%
viability, T/C [26]: 97.5%
viability, T/C [27]: 99.9%
viability, T/C [28]: 82.5%
viability, T/C [29]: 56.9%
viability, T/C [30]: 39.5%

COc1cc(C2c3cc4c(cc3C(OC3OC5COC(C)OC5C(O)C3O)C3COC(=O)C23)OCO4)cc(OC)c1O (stereo not given) + Cc1ccccc1N=Nc1ccc(NC(=O)c2ccnn2C)c(C)c1
IC50 (second compound 0.1 µM): > 10000 nM
IC50 (second compound 0.316 µM): > 10000 nM
IC50 (second compound 1 µM): > 10000 nM
IC50 (second compound 3.16 µM): 8990 nM
IC50 (second compound 10 µM): 5160 nM
viability, T/C [1]: 97.1%
viability, T/C [2]: 96.1%
viability, T/C [3]: 77.3%
viability, T/C [4]: 72.8%
viability, T/C [5]: 79.5%
viability, T/C [6]: 57.9%
viability, T/C [7]: 101%
viability, T/C [8]: 103%
viability, T/C [9]: 88.9%
viability, T/C [10]: 83.1%
viability, T/C [11]: 72.2%
viability, T/C [12]: 68.9%
viability, T/C [13]: 92.6%
viability, T/C [14]: 86.4%
viability, T/C [15]: 77.3%
viability, T/C [16]: 73.9%
viability, T/C [17]: 66.3%
viability, T/C [18]: 63.1%
viability, T/C [19]: 81.2%
viability, T/C [20]: 78.8%
viability, T/C [21]: 76.9%
viability, T/C [22]: 73.7%
viability, T/C [23]: 68.5%
viability, T/C [24]: 48%
viability, T/C [25]: 68.6%
viability, T/C [26]: 68.1%
viability, T/C [27]: 67.6%
viability, T/C [28]: 57.6%
viability, T/C [29]: 54.4%
viability, T/C [30]: 44.9%

COc1cccc2c1C(=O)c1c(O)c3c(c(O)c1C2=O)CC(O)(C(=O)CO)CC3OC1CC(N)C(O)C(C)O1 (stereo not given) + Cc1ccccc1N=Nc1ccc(NC(=O)c2ccnn2C)c(C)c1
IC50 (second compound 0.1 µM): 240 nM
IC50 (second compound 0.316 µM): 279 nM
IC50 (second compound 1 µM): 373 nM
IC50 (second compound 3.16 µM): 353 nM
IC50 (second compound 10 µM): 368 nM
viability, T/C [1]: 89.8%
viability, T/C [2]: 72.5%
viability, T/C [3]: 44.7%
viability, T/C [4]: 10%
viability, T/C [5]: 2.16%
viability, T/C [6]: 2.24%
viability, T/C [7]: 67.9%
viability, T/C [8]: 64.2%
viability, T/C [9]: 48.3%
viability, T/C [10]: 9.72%
viability, T/C [11]: 1.94%
viability, T/C [12]: 2.15%
viability, T/C [13]: 80.4%
viability, T/C [14]: 75%
viability, T/C [15]: 56.3%
viability, T/C [16]: 14.4%
viability, T/C [17]: 1.79%
viability, T/C [18]: 2.15%
viability, T/C [19]: 68.7%
viability, T/C [20]: 63.2%
viability, T/C [21]: 54.5%
viability, T/C [22]: 10.2%
viability, T/C [23]: 1.55%
viability, T/C [24]: 1.85%
viability, T/C [25]: 65.2%
viability, T/C [26]: 64.4%
viability, T/C [27]: 56.6%
viability, T/C [28]: 6.88%
viability, T/C [29]: 1.17%
viability, T/C [30]: 1.93%

Nc1ncn(C2CC(O)C(CO)O2)c(=O)n1 (stereo not given) + Cc1ccccc1N=Nc1ccc(NC(=O)c2ccnn2C)c(C)c1
IC50 (second compound 0.1 µM): > 1000 nM
IC50 (second compound 0.316 µM): > 1000 nM
IC50 (second compound 1 µM): > 1000 nM
IC50 (second compound 3.16 µM): > 1000 nM
IC50 (second compound 10 µM): > 1000 nM
viability, T/C [31]: 103%
viability, T/C [32]: 109%
viability, T/C [1]: 97.2%
viability, T/C [2]: 98%
viability, T/C [3]: 99.2%
viability, T/C [4]: 90%
viability, T/C [33]: 97.5%
viability, T/C [34]: 97.2%
viability, T/C [7]: 96.8%
viability, T/C [8]: 98.9%
viability, T/C [9]: 85.8%
viability, T/C [10]: 81.6%
viability, T/C [35]: 95.4%
viability, T/C [36]: 92%
viability, T/C [13]: 106%
viability, T/C [14]: 91.8%
viability, T/C [15]: 86.2%
viability, T/C [16]: 84.9%
viability, T/C [37]: 83.3%
viability, T/C [38]: 87.2%
viability, T/C [19]: 85.9%
viability, T/C [20]: 90.8%
viability, T/C [21]: 78.5%
viability, T/C [22]: 79.8%
viability, T/C [39]: 63%
viability, T/C [40]: 70.5%
viability, T/C [25]: 60.9%
viability, T/C [26]: 66%
viability, T/C [27]: 63.4%
viability, T/C [28]: 68%

Source: PubChem BioAssay AID1919010 (Molecular Pharmacology Branch, DTP, NCI, 2023)
